System: Immortalized human bronchial epithelial (HBE) cells
Type: cell-based
Details: HBE cells with S1 peptide; EVs, drugs alone or combined

Compound | reduction in inflammation (TNFα expression)
C=C(C)[C@@H]1CCC(C)=C[C@H]1c1c(O)cc(CCCCC)cc1O [CBD, cannabidiol] | modest reduction in inflammation
CN(C)C(=N)N=C(N)N [metformin] | modest reduction in inflammation

— patent US20230105667A1, “MESENCHYMAL STROMAL CELLS AND EXTRACELLULAR VESICLES FOR TREATING VIRAL INFECTIONS, INFLAMMATION, AND TISSUE FIBROSIS” (EXOSTEM BIOTEC LTD., priority 2020, published 2023)
